Drawing on ChEMBL document CHEMBL3507680, “University of Dundee, Gates Library screen for HepG2 cell viability”, this text covers cytotoxicity for 98 compounds.

The series can be described thus: Human HepG2 cell viability assay in 384 well format. On the set-up: dose 125 nL, time 70.5 hour; concentration not given beside the values. The following applies: HepG2 cells, read-out: Inhibition. The class given is toxicity, cell-based.
In the case of `CS(=O)(=O)N1CCCC1c1ccnc2nccn12` (stereo not drawn), the cytotoxicity at 70.5 h was -12.2%.

Consider `CC(C)CN1C(=O)c2ccc(C(=O)NCCc3c[nH]cn3)cc2C1=O`, for which the cytotoxicity at 70.5 h was -0.52%. As to `CS(=O)(=O)N1Cc2cnn(CC3CC3)c2C(COCC2CC2)C1` (stereo not drawn), the cytotoxicity at 70.5 h is -6.21%. `CCOC(=O)C1(NC(=O)CCNc2cc(C)ccc2OC)CCCCC1`: the cytotoxicity at 70.5 h was -4.71%. Take `CN(C)CCN1CCOCC2(CCCN(C(=O)Cc3ccccc3)C2)C1` (stereo not drawn): the cytotoxicity at 70.5 h is 10.9%. With `Cc1ccccc1-c1cc(NC(=O)NC2CC2)n(CCO)n1` the figure was 1.97%; with `COc1ccc(C2Nc3ccccc3C3=NCCCN32)cc1OC` (stereo not drawn), 7.54%. Turning to `O=C(c1ccncc1)N1CCC2(CC1)C(=O)Nc1ccccc12`, the cytotoxicity at 70.5 h is -10.1%.

On to `CCC(=O)N1CCC(Cc2ccccc2-c2cccc(C)c2)(C(N)=O)C1` (stereo not drawn), for which the cytotoxicity at 70.5 h stood at 12.2%. With `Cc1cnc(-c2nc(C3CCN(Cc4ccccc4O)CC3)no2)cn1` the figure was -4.91%; with `CC(C)(C)C(=O)N1CCC(n2cc(C3(O)CCCC3)nn2)CC1`, -9.39%. Next, `Cc1cnn(C2CN(Cc3nc(C(C)(C)C)no3)C2)c1`: 20.7%; `O=C(c1cc[nH]n1)N1CCCC1c1ccccn1` (stereo not drawn): -4.38%.

On to `CC(C)OCCN1CCc2cncnc2C1`, for which the cytotoxicity at 70.5 h was found to be 4.2%. In the case of `c1cnc(N2CCC3(CC2)CC(NCC2CC2)c2ccccc23)nc1` (stereo not drawn), the cytotoxicity at 70.5 h stood at 11.4%. As to `CCC(NC(=O)c1ccc(COC)o1)c1nc(C(F)(F)F)cs1` (stereo not drawn), the cytotoxicity at 70.5 h came out at 4.55%.

As for `CCC(C)NC(=O)c1coc(COc2cccc(F)c2)n1` (stereo not drawn), the cytotoxicity at 70.5 h was -3.12%. With `O=C(N1CCC(O)(C(F)(F)F)C1)C1(c2ccc(Cl)cc2)CC1` (stereo not drawn) the figure was 18.9%. With `Cc1nc(-c2cnn(C)c2)nc2c1CN(C(=O)c1cccn1C)CC2` the figure was 1.91%; with `O=C(NCCCn1cccn1)C1COCC(=O)N1Cc1ccccc1` (stereo not drawn), -0.531%; with `Cc1noc(C2CCC3(CCN(C(=O)c4cnccn4)CC3)O2)n1` (stereo not drawn), 3.99%. In the case of `CC(C)(C)OC(=O)N1CCCN(c2nnc(Br)s2)CC1`, the cytotoxicity at 70.5 h is -4.55%.

Take `CC(NC(=O)Cc1cccs1)c1nnc2n1CCCCC2` (stereo not drawn): the cytotoxicity at 70.5 h is -23.9%. Next, `Cc1cc(N2CCCC2c2cccnc2)nc(C)n1` (stereo not drawn): 5.57%; `O=C(CCC1CCCO1)NCCCC(=O)Nc1ccc(Cl)cc1` (stereo not drawn): -12%; `CN1CCCC1c1cncc(C(=O)NCCN2CCCC2)n1` (stereo not drawn): -14.2%.

Regarding `c1ccc(CN2C[C@@H]3OCCN(c4cccnc4)[C@@H]3C2)nc1`, the cytotoxicity at 70.5 h was -12.2%. Regarding `NC(=O)c1ccc(S(=O)(=O)NC(=O)COc2ccc3c(c2)CCC3)cc1`, the cytotoxicity at 70.5 h is -6.16%.

As to `CCOc1ccccc1-n1c(-c2cn(CC)nc2C)n[nH]c1=O`, the cytotoxicity at 70.5 h was -4.81%. `CN1N=C(C(=O)N2CCCC(CCc3ccccc3)C2)CCC1=O` (stereo not drawn): the cytotoxicity at 70.5 h is -9.61%. With `c1ccc(OCCSC2=NCCN2)cc1`, the cytotoxicity at 70.5 h was -2.35%. With `CCOCCCC(=O)NCc1ccnc(N2CCN(C)CC2)c1`, the cytotoxicity at 70.5 h came out at 4.8%. Next, `CCN1CCN(C[C@H]2CC[C@@H](Cc3ccc4c(c3)OCO4)O2)CC1`: -5.47%; `O=C(CC1=CSC2=NCCCN12)N1CCCCC1c1cccc(F)c1` (stereo not drawn): 20.1%. `COC(=O)NC1(C(=O)Nc2ccc(-c3cc[nH]n3)cc2)CCCC1`: the cytotoxicity at 70.5 h is -0.955%. In the case of `CCOc1cccc(NC(=O)Cc2cccc(O)c2)n1`, the cytotoxicity at 70.5 h came out at 16.2%.

As for `O=C(Cn1cc(Cl)cn1)NCCN1CCC(O)(c2ccc(F)cc2)CC1`, the cytotoxicity at 70.5 h was 5.27%.

As to `O=C(CCCNc1ncccn1)Nc1ccc(Cn2cncn2)cc1`, the cytotoxicity at 70.5 h is -10.8%. For the compound `O=C(NCC1CCN(Cc2cc3ccccc3[nH]2)C1)C1CCCCC1` (stereo not drawn), the cytotoxicity at 70.5 h is -19.6%. With `O=C(c1cnn2c1OCCC2)N1CCN(C/C=C/c2ccccc2)CC1`, the cytotoxicity at 70.5 h came out at 7.17%. For `CN(C)C(=O)[C@H]1C[C@@H]2CN(S(=O)(=O)Cc3ccccc3)C[C@H]1O2`, the cytotoxicity at 70.5 h was -17.1%. Next, `CCS(=O)(=O)NC[C@]12COC[C@H]1CN(Cc1cccc(OC)c1)C2`: -11.2%. As to `Cc1c[nH]cc1C(=O)N1CCN(CCc2cccs2)CC1`, the cytotoxicity at 70.5 h was -5.85%. As for `Cc1ccc(C(=O)N2CCC3(CC2)CC(N2CCCC2)C3)cc1`, the cytotoxicity at 70.5 h was -10.8%.

For the compound `COc1cc(C2CC(=O)Oc3cc(C)[nH]c(=O)c32)ccc1O` (stereo not drawn), the cytotoxicity at 70.5 h is -18.3%. On to `CC(=O)N1CCC(c2cc(Nc3ncccn3)nc(C)n2)C1` (stereo not drawn), for which the cytotoxicity at 70.5 h is -6.88%. Regarding `CS(=O)(=O)NCCCN1CCCC1Cc1ccccc1` (stereo not drawn), the cytotoxicity at 70.5 h came to 4.23%. Consider `Cc1cnc(C(=O)N2CCCN(Cc3cnn(C(C)C)c3)CC2)cn1`, for which the cytotoxicity at 70.5 h was 17.6%. With `CC(=O)N1Cc2cnc(C(C)(C)C)nc2C1` the figure was 19.2%. Regarding `c1ccc(CN2CCOC3CNCC[C@H]32)cc1` (stereo partly drawn), the cytotoxicity at 70.5 h is 13.7%. On to `O=C(c1cccs1)N1C[C@H]2CC[C@@]3(N=C(c4ccccc4)NC3=O)[C@H]2C1`, for which the cytotoxicity at 70.5 h is -4.38%.

Regarding `O=C(NCC1CCCO1)c1nc2c(s1)CCCN2c1ncccn1` (stereo not drawn), the cytotoxicity at 70.5 h was 24.3%. Turning to `CC1Cc2ccccc2N1C(=O)Cn1nc(-c2cccs2)ccc1=O` (stereo not drawn), the cytotoxicity at 70.5 h was -8.13%. For `CCC(C)NC(=O)c1cc(Br)c2c(c1)OCCO2` (stereo not drawn), the cytotoxicity at 70.5 h is -1.67%. Regarding `CC1=N[C@@]2(CC[C@@H]3CN(CC(C)C)C[C@@H]32)C(=O)N1C`, the cytotoxicity at 70.5 h is -5.39%. Next, `COCCN(Cc1ccc(F)cc1Cl)C(=O)c1csnn1`: -2.37%.

Take `O=C1NC[C@@]2(C(=O)O)CN(Cc3cccc(C(F)(F)F)c3)C[C@@H]12`: the cytotoxicity at 70.5 h came out at 7.18%. With `O=C(O)c1ccnc(-c2ccnc(COc3ccc(Cl)cc3)n2)c1`, the cytotoxicity at 70.5 h was -9.69%. As for `CS(=O)(=O)N1C[C@@H]2CC[C@H](C1)N(Cc1ccc3nsnc3c1)C2`, the cytotoxicity at 70.5 h came out at 18.3%. For `CCOC1CCCN(C(=O)c2ccccc2NCc2cccnc2)C1` (stereo not drawn), the cytotoxicity at 70.5 h was 15.9%. Regarding `COc1cc(C(=O)NC(C)C)nc2c(C)cc(F)cc12`, the cytotoxicity at 70.5 h stood at 23.4%. For `CS(=O)(=O)NCC(=O)N[C@H]1CN(c2cnccn2)C[C@@H]1C1CC1`, the cytotoxicity at 70.5 h is 9.56%.

For `CN1CCC(c2cccc(NCc3ccncc3)n2)CC1`, the cytotoxicity at 70.5 h was -2.85%. As for `Cc1nc(C(C)C)sc1C(=O)NCCn1ccnc1`, the cytotoxicity at 70.5 h is -7.02%. On to `CCc1nc(C)c(C(=O)NCCn2nc3ccccn3c2=O)s1`, for which the cytotoxicity at 70.5 h was -3.88%. On to `COCCN(C(=O)c1ccn(-c2ccc(OC)cc2)n1)C(C)C(N)=O` (stereo not drawn), for which the cytotoxicity at 70.5 h was found to be 20.6%. Next, `O=C(c1ccc[nH]1)N1CCO[C@]2(CCC[C@@H]2COc2cccnc2)C1`: -2.32%.

`Cc1ccccc1C(=O)NCC(=O)NCc1ccccn1`: the cytotoxicity at 70.5 h amounted to 15.5%. Regarding `COCCn1cc(C(=O)N2CCCC2c2cnn(C)c2)ccc1=O` (stereo not drawn), the cytotoxicity at 70.5 h is -6.63%. With `O=C(c1cc(F)ccc1F)C1CCN(C(=O)c2ccccn2)CC1`, the cytotoxicity at 70.5 h is -12.2%. With `O=C1CC2(CCN(Cc3ncc[nH]3)CC2)CN1Cc1cc(F)cc(F)c1` the figure was -3.59%; with `Cc1cccc(CNCC2COC3(CCCC3)O2)c1C` (stereo not drawn), 3.58%; with `N#Cc1cccc(S(=O)(=O)NC(=O)COc2ccc3c(c2)CCC3)c1`, 4.27%. Next, `Cn1nc2c(cc1=O)CN(Cc1nc3ccccc3c(=O)[nH]1)CC2`: -6.45%; `CN(Cc1ccsc1)C(=O)c1cc2c([nH]c1=O)CCC2`: -4.53%; `CC(C)NC(=O)N(Cc1cc(O)nc2ccccc12)C(C)C`: -7.39%. `COc1ccc(OC)c(CCNc2ncc(S(N)(=O)=O)s2)c1`: the cytotoxicity at 70.5 h turned out to be 0.207%. With `CCc1ccccc1OC1CN(C(=O)c2ccnc(OC)c2)C1`, the cytotoxicity at 70.5 h was found to be 11.1%. In the case of `COCCS(=O)(=O)NCC(C)c1cccc(C)c1` (stereo not drawn), the cytotoxicity at 70.5 h is -3.93%. With `CCn1c(CC2CCN(S(=O)(=O)c3cccs3)CC2)nn(C)c1=O` the figure was 10.6%; with `CCc1nc(C2CCCN(C(=O)NC3CC3)C2)no1` (stereo not drawn), -0.741%. For `CS(=O)(=O)N1CCC2(CC1)CC(NCC1CC1)c1ccccc12` (stereo not drawn), the cytotoxicity at 70.5 h is -7.3%. Regarding `Cc1noc(C)c1CN(C)C(=O)c1ccc(C(F)(F)F)nc1`, the cytotoxicity at 70.5 h was -0.00923%.

With `N#Cc1cccc(N2CCCC(CO)(Cc3ccccc3F)C2)n1` (stereo not drawn), the cytotoxicity at 70.5 h was determined as 20.1%. For the compound `CC(C)(C)c1coc([C@@H]2COCCN2Cc2ncc[nH]2)n1`, the cytotoxicity at 70.5 h was -0.512%. As for `Cc1nn(C)c2ncnc(N3CCC(O)(CN4CCCC4)CC3)c12`, the cytotoxicity at 70.5 h was -6.34%. For `O=C(CN1CCS(=O)(=O)CC1)NCc1ccccc1F`, the cytotoxicity at 70.5 h was -8.79%. Regarding `CC1c2ncc(COc3cccnc3)n2CCN1Cc1ccco1` (stereo not drawn), the cytotoxicity at 70.5 h is -12.4%.

On to `COCCOc1cc(C)ccc1NC(=O)N(C)Cc1cnn(C)c1`, for which the cytotoxicity at 70.5 h is -13.2%. `CN(C)C(=O)c1ccc(NCCNc2ccc3ccccc3n2)nc1`: the cytotoxicity at 70.5 h is 45.4%. `CCc1c(C(=O)NCC(=O)OCC2CC2)cnn1-c1ccc(C)cc1`: the cytotoxicity at 70.5 h stood at 27.6%. Next, `Cc1c(NCC(C)(C)C)cccc1C(=O)NCc1ncnn1C`: 14.6%; `O=C1CC[C@H]2CN(Cc3cccc(F)c3)CC[C@H]2N1CCc1c[nH]cn1`: -2.79%; `O=C1NCC2(CCCN(C(=O)c3c[nH]nc3-c3cccs3)C2)O1` (stereo not drawn): -8.3%. Regarding `CN(Cc1ccc(F)cc1)C(=O)Nc1cccnc1N1CCCC1`, the cytotoxicity at 70.5 h was -6.22%.

Regarding `O=C(c1cscn1)N1CCC(O)(Cn2ccc3ccncc32)CC1`, the cytotoxicity at 70.5 h was -6.76%.

Regarding `O=C1c2cnc(N3CCC(O)CC3)nc2CN1Cc1cccc(F)c1`, the cytotoxicity at 70.5 h is 22%. Regarding `CCOc1ccc(CN[C@@H]2COC[C@H]2c2ccc(F)cc2)cc1`, the cytotoxicity at 70.5 h is 29.1%.
